Results: EP0365089A2, “2-Aryl-5(3-methoxy-5-(hydroxypropylsulfonyl)-4-propoxyphenyl) tetrahydrothiophen and analogs” (MERCK & CO. INC., priority 1988, dated 1990)

Assays:
[1] = target: T1, PAF binding to its specific receptor binding site on rabbit platelet plasma membranes (Oryctolagus cuniculus, UniProt G1TEI7); test: Inhibition of 3H-PAF binding to platelet plasma membrane (isotopic labeling and filtration); details: for inhibition at 30000 µM: dose 30 mM; for inhibition at 30 µM: dose .03 mM
T1 construct: from tissue; host or cells: rabbit platelet plasma membranes
T1 sequence (G1TEI7 1-342): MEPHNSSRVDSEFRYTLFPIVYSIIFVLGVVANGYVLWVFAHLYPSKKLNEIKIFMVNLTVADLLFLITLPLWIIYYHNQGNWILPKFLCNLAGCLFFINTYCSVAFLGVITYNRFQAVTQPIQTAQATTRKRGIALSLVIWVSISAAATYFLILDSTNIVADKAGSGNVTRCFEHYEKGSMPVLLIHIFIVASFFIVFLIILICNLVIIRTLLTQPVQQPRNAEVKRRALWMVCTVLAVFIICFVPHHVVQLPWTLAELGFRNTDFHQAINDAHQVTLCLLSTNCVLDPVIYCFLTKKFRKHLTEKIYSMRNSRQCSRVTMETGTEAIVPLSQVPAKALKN
Description: In vitro, they inhibit PAF-induced functions in both the cellular and tissue levels by disturbing the PAF binding to its specific receptor site. The ability of a compound of formula (I) to inhibit the PAF binding to its specific receptor binding site on rabbit platelet plasma membranes was measured by an assay developed by us.
The inhibition of H^3-PAF binding to human or rabbit platelet plasma membrane by a PAF-antagonist of Formula (I) was determined by a method employing isotopic labeling and filtration techniques. Generally, a series of Tris-buffered solutions of the selected antagonist at predetermined concentrations were prepared. Each of these solutions contains 1 pmole of ^3H-PAF, a known amount of the test antagonist, and a sufficient amount of the pH 7.0 Tris-buffer solution (10mM Tris, 0.25% bovine serum albumin, and 10 mM MgC12 per ml water) to make the final volume of 1 ml. After adding into a set of test tubes each with 100 αg of the platelet plasma […] suspension and one of the Tris-buffer solutions described above, the resulting mixture in each test tube was incubated at 0 C for about one hour or until the reaction was complete. Two control samples, one of which (Ci) contains all the ingredients described above except the antagonist and the other (C2) contains C1 plus a 1000-fold excess of unlabeled PAF, were also prepared and incubated simultaneously with the test samples. After the incubation was completed, the contents of each test tube were filtered under vacuo through a Whatman GF/C fiberglass filter and the residue washed rapidly several times with a total of 20 ml cold (0°-5°C) Tris-buffer solution. Each washed residue was then suspended in 10 ml scintillation solution (Aquasol 2, New England Nuclear, Connecticut) and the radioactivity was counted in a Packard Tri-Carb 460CD Liquid Scintillation System. Defining the counts from a test sample as "Total binding with antagonist"; the counts from the control sample C1, as "Total binding C1"; and the counts from the control sample C2 as "non-specific binding C2", the percent inhibition of each test antagonist can be determined by the following equation: [formula] Specific binding =(Total binding C1)-(non-specific binding C2)

[2] = system: PAF; test: PAF-antagonist activity, test not specified; details: ranking in words, no test named
[3] = system: PAF-induced symptoms including decreased arterial blood flow, increased vascular permeability and increased degranulation in rats; test: Oral activity of PAF-antagonists in inhibiting PAF-induced symptoms in rats; assay type: in vivo; details: oral dose 1 mg/kg, male rats weighing about 190-220g
Description: • 1.) Fast rats overnight. • 2.) Weigh the rats the morning after fasting, • 3.) Suspend a test compound in 0.5% methylcellulose with 12 ounce hand homogenizer or a sonicator if necessary to yield a fine suspension. […] After the beginning of the PAF infusion as well as just before the PAF infusion, measure the following three parameters for each blood sample: • a) the arterial blood flow rate: determined by measuring the time to fill a pre-calibrated 14 µl capillary tube; • b) the vascular permeability: measured by calculating the increased hematocrit which results from loss of plasma from the circulation to extra-vascular spaces. • c) the circulatory degranulation: determined by assaying the increased plasma level of N-acetylglucosaminidase, a marker lysosomal enzyme. • 7.) Determine the percent change in each parameter of a blood sample at each post-PAF interval including the 30 minute interval, relative to the pre-PAF blood values. • 8.) Calculate the percent inhibition by the formula: % inhibition = [formula]

| SMILES | inhibition at 30000 µM [1] [%] | inhibition at 30 µM [1] [%] | PAF-antagonist activity [2] | also measured |
| --- | --- | --- | --- | --- |
| COc1cc(C2CCC(c3cc(OC)c(OC)c(OC)c3)S2)cnc1OC (centres unmarked) [5,6-di-methoxy-3-pyridyl] |  |  |  | inhibition at 1000 µM ([1]; dose 1 mM): 80%; inhibition at 5000 µM ([1]; dose 5 mM): 96% |
| CCOc1c(OC)cc([C@H]2CC[C@H](c3cc(OC)c(OC)c(OC)c3)S2)cc1C(=O)Nc1cccc(Cl)c1 (relative stereo) [(3-chlorophenyl-aminocarbonyl)phenyl, trans-2-(3,4,5-trimethoxyphenyl)-5-(3-methoxy-4-ethoxy-5-(3-chlorophenylaminocarbonyl)-phenyl)tetrahydrothiophene] | 6 |  | most active |  |
| CCCOc1c(C#N)cc([C@H]2CC[C@H](c3cc(OC)c(OC)c(OC)c3)S2)cc1OC (relative stereo) [3-cyano-4-propoxy-5-methoxyphenyl, trans-2-(3,4,5-trimethoxyphenyl)-5-(5-cyano-3-methoxy-4-propoxyphenyl)-tetrahydrothiophene] | 27 |  |  |  |

Now from value to molecule, other results behind:

| inhibition at 30000 µM [1] [%] | inhibition at 30 µM [1] [%] | SMILES | PAF-antagonist activity [2] | also measured |
| --- | --- | --- | --- | --- |
|  | 89 | CCCOc1c(OC)cc([C@H]2CC[C@H](c3cc(OC)c(OC)c(OC)c3)S2)cc1S(=O)(=O)CC(C)O (relative stereo) [Trans-2-(3,4,5-trimethoxyphenyl)-5-(3-methoxy-5-(2-hydroxypropylsulfonyl)-4-propoxyphenyl)-tetrahydrothiophene] | most active | %inhibition A = increased vascular permeability [3]: 60%; %inhibition B = increased degranulation [3]: 62%; inhibition at 3 µM ([1]; dose .003 mM): 57% |
|  | 69 | COc1cc(C2CCC(c3cc(OC)c(OC)c(OC)c3)S2)cc(OC)c1OC (centres unmarked) [same as Ar] |  |  |
